Laboratory results: US20240307507A1, “LACTOFERRIN COMPOSITIONS AND METHODS OF USE” (LACTEA THERAPEUTICS LLC, priority 2021, published 2024)

System: SARS-COV-2
Assay: SARS-COV-2 Cytopathic Effect (CPE) reduction assay in Vero E6 cells
Type: cell-based
Conditions: Severe acute respiratory syndrome coronavirus 2, Vero C1008, 72 h

CCC(CC)COC(=O)[C@H](C)N[P@](=O)(OC[C@H]1O[C@@](C#N)(c2ccc3c(N)ncnn23)[C@H](O)[C@@H]1O)Oc1ccccc1 [Remdesivir, reference compound]
EC50: 4.5 µM
